Columns and labels:
Format in all cases: in vivo
Pemphigus bursarius = test: Example 2: chrysanthemums, lettuce root aphid, foliar spray; settings: on roots, spray on above-ground parts, rate : I-9 144, I-2 96
Protocol: In three replications, in each case 10 109-day-old chrysanthemums of the cultivar “Camilla” in 2 l-vessels are treated against the lettuce root aphid Pemphigus bursarius. Here, the active compounds Example (I-9) (240 SC) and Example (I-2) (240 SC) are applied with a knapsack sprayer operated by pressurized air at the stated application rates only to the above-ground parts of the plants. The soil is covered with a film. The application rate is 300 l of water/ha. 0.1% a.i. of rapeseed oil methyl ester (500 EW) is added to the spray liquor.
The kill in percent is determined on the roots. 21 and 29 days after the application, the following results are obtained: […]

Aonidiella aurantii = test: Example 15: orange trees treated against Aonidiella aurantii; settings: on fruits, % a.i.: Tokuthion 0.048 (once), I-9 0.0096, I-2 0.0096 (two applications)
Protocol: In three replications, 3-year-old orange trees of the cultivar “Midnight Valenzia” are treated against Aonidiella aurantii. Two applications are carried out at an interval of 72 days, using a motor-operated knapsack sprayer. Here, the active compounds Example (I-9) (240 SC) and Example (I-2) (240 SC) in a tank mix with 0.1% a.i. of rapeseed oil methyl ester (500 EW) at the stated application rate are tested against the standard Tokuthion (960 EC) at the stated amounts. applied once. The application rate is 4 l of water per tree.
Evaluation is carried out 130 and 176 days after the treatment by rating the kill on the fruits.

Dysmicoceus brevipes = test: Example 30a: guyabano tree treated against Dysmicoceus brevipes; settings: on fruits, g a.i./m crown height: Lorsban 180, I-4 48
Protocol: In three replications, in each case one guyabano tree is treated against Dysmicoceus brevipes. Here, the active compound Example (I-4) (240 SC), in a tank mix with 0.1% of rapeseed oil methyl ester (500 EW), is, at the stated application rate, tested against the commercial standard Lorsban (500 EC), at the stated application rate. The application is carried out using a motor-operated knapsack sprayer. Here, each plant is treated with spray liquor.
Evaluation is carried out 3, 7 and 14 days after the treatment by rating the kill in percent on the fruits.

Orthezia praelonga = test: Example 25: orange trees treated against Orthezia praelonga; settings: population on leaves, % a.i.: methidathion 0.05, I-4 0.0144, I-9 0.0144
Protocol: In two replications, two about 7-year-old orange trees of the cultivar “Pera Rio” are treated against Orthezia praelonga. Here, the active compounds Example (I-4) (240 SC) and Example (I-9) (240 SC), in a tank mix with 0.1% a.i. of Renex, are tested against the commercial standard Methidathion (400 EC), at the stated application rates. The application is carried out using a knapsack sprayer operated with pressurized air. Evaluation is carried out 6 and 16 days after the treatment by rating the kill of the population on the leaves.

Myzus persicae = test: Example 54: bell pepper plants treated against Myzus persicae; settings: on leaves, g a.i./ha: Provado 50, I-4 48
Protocol: In four replications, plots of a size of about 8.4 m^2 with 36 11-week-old bell pepper plants of the cultivar “Casea dura ikeda” are treated against Myzus persicae. The application is carried out using a knapsack sprayer operated with pressurized air. Here, the active compound Example (I-4) (240 SC), in a tank mix with 0.2% a.i. of rapeseed oil methyl ester (500 EW), is tested against the commercial standard Provado (200 SC), at the stated application rates. The application rate is 600 l of water/ha. There are three applications, in each case at an interval of 7 d.
Evaluation is carried out 1, 7, and 14 days after the last treatment by rating the kill of the animals on the leaves.

Aspidiotus neri = test: Example 20: lime trees treated against Aspidiotus neri; settings: 167 d after treatment, on fruits, % a.i.: Dursban 0.096, Juvinal 0.005, I-4 0.0072
Protocol: In four replications, about 5-year-old lime trees of the cultivar “Fino” are treated against Aspidiotus neri. The application is carried out using a knapsack sprayer. Here, the active compound Example (I-4) (240 SC) in a tank mix with 0.1% a.i. of rapeseed oil methyl ester (500 EW) at the stated application rate is tested against the standards Dursban (480 EC) and Juvinal (100 EC) at the stated amounts, applied once. The application rate is 3000 l of water/ha per tree.
Evaluation is carried out 167 days after the treatment by rating the kill on the fruits.

Psylla piri = test: Example 5: pear trees treated against Psylla piri; settings: nymphs on shoots, g a.i./ha/m crown height: amitraz 266, I-4 72
Protocol: In three replications, pear trees of the cultivar “Williams Christ” are treated against Psylla piri. Application is shortly before the eggs hatch. The application is carried out using a barrow-mounted sprayer operated with pressurized air. Here, the active compound Example (I-4) (240 SC) is tested in a tank mix with 0.1% a.i. rapeseed oil methyl ester (500 EW) at the stated amount against the standard amitraz (200 EC) at the stated amount. The application rate is 1000 l of water/ha.
Evaluation is carried out 7, 14 and 21 days after the treatment by rating the kill of the nymphs on the shoots.

Macrosiphum euphorbiae = test: Example 55: strawberry plants treated against Macrosiphum euphorbiae; settings: nymphs on strawberry plants, g a.i./ha: Calypso 120, I-4 75
Protocol: In four replications, plots of a size of about 3 m^2 with 3-week-old strawberry plants are treated against Macrosiphum euphorbiae and Rhodobium porosum. The application is carried out using a knapsack sprayer operated with pressurized air. Here, the active compound Example (I-4) (150 OD) and the commercial standard Calypso (480 SC) are tested at the stated application rates. Here, the standard is sprayed as a tank mix with 0.03% of Motto (adjuvant). The application rate is 500 l of water/ha.
Evaluation is carried out 7 and 14 days after the second treatment by rating the kill of the nymphs on the plants.

SMILES | Kill (%) 21 d (Pemphigus bursarius; 21 d after application) [%] | Kill (%) 29 d (Pemphigus bursarius; 29 d after application) [%] | Kill (%) 130 d (Aonidiella aurantii; 130 d after treatment) [%] | Kill (%) 176 d (Aonidiella aurantii; 176 d after treatment) [%] | Kill (%) 3 days (Dysmicoceus brevipes; 3 days after treatment) [%] | Kill (%) 7 days (Dysmicoceus brevipes; 7 days after treatment) [%] | Kill (%) 14 days (Dysmicoceus brevipes; 14 days after treatment) [%] | Kill (%) 6 d (Orthezia praelonga; 6 d after treatment) [%] | Kill (%) 16 d (Orthezia praelonga; 16 d after treatment) [%] | Kill (%) 1 d (Myzus persicae; 1 d after last of three treatments) [%] | Kill (%) 7 d (Myzus persicae; 7 d after last of three treatments) [%] | Kill (%) 14 d (Myzus persicae; 14 d after last of three treatments) [%] | Kill (%) 167 d (Aspidiotus neri) [%] | Kill (%) 7 d (Psylla piri; 7 d after treatment) [%] | Kill (%) 14 d (Psylla piri; 14 d after treatment) [%] | Kill (%) 21 d (Psylla piri; 21 d after treatment) [%] | Macrosiphum euphorbiae Kill (%) 7 d (Macrosiphum euphorbiae; 7 d after second treatment) [%] | Macrosiphum euphorbiae Kill (%) 14 d (Macrosiphum euphorbiae; 14 d after second treatment) [%]
CCOC(=O)OC1=C(c2cc(C)ccc2Br)C(=O)NC12CCC(OC)CC2 (stereo not drawn) [Example (I-2)] | 80.8 | 91.8 | 52 | 76 | – | – | – | – | – | – | – | – | – | – | – | – | – | –
CCOC(=O)OC1=C(c2cc(C)ccc2C)C(=O)NC12CCC(OC)CC2 (stereo not drawn) [Example (I-4)] | – | – | – | – | 89.8 | 100 | 100 | 94 | 76 | 99.1 | 98.5 | 100 | 96.2 | 100 | 100 | 100 | 62.2 | 94
